This passage reports Kd and IC50 results from article PMC11830721 (Frontiers in Pharmacology, 2025).

Assay [1] addresses T1, FLT3-ITD (Homo sapiens, UniProt P36888, ITD).
T1 sequence (P36888 27-993): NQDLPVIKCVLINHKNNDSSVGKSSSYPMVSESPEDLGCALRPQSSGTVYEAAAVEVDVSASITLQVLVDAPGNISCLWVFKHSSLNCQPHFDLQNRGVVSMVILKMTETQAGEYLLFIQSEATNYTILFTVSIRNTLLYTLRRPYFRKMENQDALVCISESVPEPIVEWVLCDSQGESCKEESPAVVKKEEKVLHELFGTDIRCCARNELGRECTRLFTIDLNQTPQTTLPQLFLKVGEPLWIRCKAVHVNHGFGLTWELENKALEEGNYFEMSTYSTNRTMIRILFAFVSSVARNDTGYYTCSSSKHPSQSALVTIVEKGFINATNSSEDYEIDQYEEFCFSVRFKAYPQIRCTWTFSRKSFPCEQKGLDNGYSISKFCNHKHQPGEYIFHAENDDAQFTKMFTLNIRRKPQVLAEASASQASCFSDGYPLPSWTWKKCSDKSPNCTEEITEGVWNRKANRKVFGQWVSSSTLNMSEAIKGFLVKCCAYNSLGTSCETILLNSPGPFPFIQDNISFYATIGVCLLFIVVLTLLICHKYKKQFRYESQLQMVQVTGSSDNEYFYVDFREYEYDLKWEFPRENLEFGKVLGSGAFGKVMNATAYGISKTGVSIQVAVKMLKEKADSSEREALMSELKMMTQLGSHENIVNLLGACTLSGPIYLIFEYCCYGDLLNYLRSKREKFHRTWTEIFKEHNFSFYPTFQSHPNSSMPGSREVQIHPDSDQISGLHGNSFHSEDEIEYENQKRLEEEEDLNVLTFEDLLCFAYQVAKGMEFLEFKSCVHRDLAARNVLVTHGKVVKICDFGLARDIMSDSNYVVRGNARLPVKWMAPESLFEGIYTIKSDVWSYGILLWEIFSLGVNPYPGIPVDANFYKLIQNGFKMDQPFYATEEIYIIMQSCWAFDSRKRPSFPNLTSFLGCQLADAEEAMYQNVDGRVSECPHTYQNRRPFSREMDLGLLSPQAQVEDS
Kind of assay: Microscale thermophoresis (MST) binding affinity. Particulars: 50 mM Tris, 230 mM NaCl, pH 7.0, labeled protein 50 nM. How it is done:
The protein was labeled with a fluorescence tag utilizing a Lys Labeling Kit (NanoTemper), with a final concentration of 50 nM being achieved. Adhering to the manufacturer’s guidelines, the compounds were titrated from an initial concentration of 12.5 μM with a 1:1 dilution ratio. Next, each sample was centrifuged at 15,000 rpm for 5 min, followed by loading into standard glass capillaries for MST analysis.
(In general: Microscale thermophoresis detects binding through changes in fluorescence in a small temperature gradient.)

Assay [2] has as its target T1, FLT3-ITD. Kind of assay: ADP-Glo kinase-inhibition assay. The format is biochemical. Particulars: ADP-Glo; ATP 100 μM; FLT3-ITD 10 ng/μL. How it is done: Subsequently, the kinase detection reagent was added and incubated for an additional 15 min. Finally, the mixture was incubated for 1 h, and relative luminescence units (RLU) were measured.
Moreover, we extended the kinase selectivity profiling of FLIN-4 to evaluate its inhibitory activity against 60 non-target kinases.
A general note: ADP-Glo turns the ADP formed in a reaction into a luminescent signal.

For a further assay, the system named is MV4-11 cells. Briefly: MTT anti-proliferation assay, MV4-11. The format is cell-based. Particulars: Homo sapiens, 72-h treatment. How it is done: In addition, the normal hematopoietic cell line was COLO 829BL from ATCC. The cells were maintained in RPMI-1640 medium supplemented with 10% FBS, and 1% penicillin and streptomycin. The cells were cultured in an incubator at 37°C with 5% CO2. […] The high-performance liquid chromatography (HPLC) spectra data for each compound are provided in the (Supplementary Figures S1–S6).
The effects of the test compounds on MV4-11, NB4, and COLO 829BL cell lines were quantitatively evaluated according to the methods previously reported ([Zhou et al., 2022]).

On to `CCc1nc(C(N)=O)c(Nc2ccc(N3CCC(NC4CC4)CC3)c(OC)c2)nc1NC1CCOC(C(O)CO)C1` (stereo not drawn) [FLIN-1], for which the Kd (in general, the free concentration of one partner at which half of the binding sites on the other are occupied at equilibrium, for simple one-to-one binding) on FLT3-ITD [1] amounted to 8.74 ± 0.52 nM. Besides, the IC50 – broadly, the concentration needed to halve the response being measured – against FLT3-ITD [2] amounted to 10.2 ± 0.81 nM; with MV4-11 cells, 12.2 ± 0.94 nM.

With `CCc1nc(C(N)=O)c(Nc2ccc(N3CCC(NC4CCCC4)CC3)c(OC)c2)nc1NC1CCOC(C(O)CO)C1` (stereo not drawn) [FLIN-2], binding on FLT3-ITD [1] was characterised by a dissociation constant (Kd) of 3.62 ± 0.41 nM. In addition, the figures for the IC50 on FLT3-ITD [2] and in the assay on MV4-11 cells were 4.98 ± 0.35 nM and 5.54 ± 0.41 nM, respectively.

`CCc1nc(C(N)=O)c(Nc2ccc(N3CCC(NC4CCCCC4)CC3)c(OC)c2)nc1NC1CCOC(C(O)CO)C1` (stereo not drawn) [FLIN-3] returned a Kd on FLT3-ITD [1] of 2.19 ± 0.33 nM. In addition, the results for the IC50 against FLT3-ITD [2] and in the assay on MV4-11 cells were 2.85 ± 0.22 nM and 3.03 ± 0.27 nM, respectively.

Consider `CCCNC1CCN(c2ccc(Nc3nc(NC4CCOC(C(O)CO)C4)c(CC)nc3C(N)=O)cc2OC)CC1` (stereo not drawn) [FLIN-5], for which the Kd on FLT3-ITD [1] came out at 12.5 ± 1.05 nM. Moreover, the IC50 against FLT3-ITD [2] worked out at 14.5 ± 0.98 nM; in the assay with MV4-11 cells, 17.7 ± 1.03 nM.

`CCc1nc(C(N)=O)c(Nc2ccc(N3CCC(NC(CC)CC)CC3)c(OC)c2)nc1NC1CCOC(C(O)CO)C1` (stereo not drawn) [FLIN-6] registered a Kd at FLT3-ITD [1] of 5.26 ± 0.42 nM. Moreover, the IC50 against FLT3-ITD [2] is 6.39 ± 0.47 nM; in the assay with MV4-11 cells it was 8.28 ± 0.54 nM.
